{"source": "PubChem BioAssay AID1259407", "about": "(Chemical Carcinogenesis Research Information System (CCRIS), 2018)", "tested_on": "CCRIS mutagenicity, Ames/micronucleus/aberration tests", "assay": "CCRIS mutagenicity studies", "key": {"[1]": {"settings": "Test System: AMES SALMONELLA TYPHIMURIUM, Strain/Indicator: TA98, Metabolic Activation: NONE, Method: PREINCUBATION"}, "[2]": {"settings": "Test System: AMES SALMONELLA TYPHIMURIUM, Strain/Indicator: TA98, Metabolic Activation: NONE, Method: STANDARD PLATE"}, "[3]": {"settings": "Test System: AMES SALMONELLA TYPHIMURIUM, Strain/Indicator: TA98, Metabolic Activation: RAT, LIVER, S-9, AROCLOR 1254, Method: STANDARD PLATE"}, "[4]": {"settings": "Test System: AMES SALMONELLA TYPHIMURIUM, Strain/Indicator: TA100, Metabolic Activation: NONE, Method: PREINCUBATION"}, "[5]": {"settings": "Test System: AMES SALMONELLA TYPHIMURIUM, Strain/Indicator: TA100, Metabolic Activation: NONE, Method: STANDARD PLATE"}, "[6]": {"settings": "Test System: AMES SALMONELLA TYPHIMURIUM, Strain/Indicator: TA100, Metabolic Activation: RAT, LIVER, S-9, AROCLOR 1254, Method: STANDARD PLATE"}, "[7]": {"settings": "Test System: AMES SALMONELLA TYPHIMURIUM, Strain/Indicator: TA102, Metabolic Activation: NONE, Method: PREINCUBATION"}, "[8]": {"settings": "Test System: AMES SALMONELLA TYPHIMURIUM, Strain/Indicator: TA1537, Metabolic Activation: NONE, Method: STANDARD PLATE"}, "[9]": {"settings": "Test System: AMES SALMONELLA TYPHIMURIUM, Strain/Indicator: TA1537, Metabolic Activation: RAT, LIVER, S-9, AROCLOR 1254, Method: STANDARD PLATE"}, "[10]": {"settings": "Test System: AMES SALMONELLA TYPHIMURIUM, Strain/Indicator: TA1538, Metabolic Activation: NONE, Method: STANDARD PLATE"}}, "note": "Calls of active or inactive are those of the source. The rule behind the calls is not given here."}
{"smiles": "CC(C)=CCC1=C(O)c2ccccc2C(=O)C1=O", "values": [{"measurement": "mutagenic call", "setting": "Test System: AMES SALMONELLA TYPHIMURIUM, Strain/Indicator: TA97, Metabolic Activation: NONE, Method: PREINCUBATION", "value": "inactive; negative"}, {"measurement": "mutagenic call", "setting": "Test System: AMES SALMONELLA TYPHIMURIUM, Strain/Indicator: TA97, Metabolic Activation: RAT, LIVER, S-9, PHENOBARBITAL AND 5,6-BENZOFLAVONE, Method: PREINCUBATION", "value": "inactive; negative"}, {"measurement": "mutagenic call", "setting": "Test System: AMES SALMONELLA TYPHIMURIUM, Strain/Indicator: TA98, Metabolic Activation: HAMSTER, LIVER, S-9, AROCLOR 1254, Method: STANDARD PLATE", "value": "inactive; negative"}, {"measurement": "mutagenic call", "setting": "[1]", "value": "inactive; negative"}, {"measurement": "mutagenic call", "setting": "[2]", "value": "inactive; negative"}, {"measurement": "mutagenic call", "setting": "[3]", "value": "inactive; negative"}, {"measurement": "mutagenic call", "setting": "Test System: AMES SALMONELLA TYPHIMURIUM, Strain/Indicator: TA98, Metabolic Activation: RAT, LIVER, S-9, PHENOBARBITAL AND 5,6-BENZOFLAVONE, Method: PREINCUBATION", "value": "inactive; negative"}, {"measurement": "mutagenic call", "setting": "Test System: AMES SALMONELLA TYPHIMURIUM, Strain/Indicator: TA100, Metabolic Activation: HAMSTER, LIVER, S-9, AROCLOR 1254, Method: STANDARD PLATE", "value": "inactive; negative"}, {"measurement": "mutagenic call", "setting": "[4]", "value": "inactive; negative"}, {"measurement": "mutagenic call", "setting": "[5]", "value": "inactive; negative"}, {"measurement": "mutagenic call", "setting": "[6]", "value": "inactive; negative"}, {"measurement": "mutagenic call", "setting": "Test System: AMES SALMONELLA TYPHIMURIUM, Strain/Indicator: TA100, Metabolic Activation: RAT, LIVER, S-9, PHENOBARBITAL AND 5,6-BENZOFLAVONE, Method: PREINCUBATION", "value": "inactive; negative"}, {"measurement": "mutagenic call", "setting": "[7]", "value": "inactive; negative"}, {"measurement": "mutagenic call", "setting": "Test System: AMES SALMONELLA TYPHIMURIUM, Strain/Indicator: TA102, Metabolic Activation: RAT, LIVER, S-9, PHENOBARBITAL AND 5,6-BENZOFLAVONE, Method: PREINCUBATION", "value": "inactive; negative"}, {"measurement": "mutagenic call", "setting": "Test System: AMES SALMONELLA TYPHIMURIUM, Strain/Indicator: TA104, Metabolic Activation: NONE, Method: PREINCUBATION", "value": "inactive; negative"}, {"measurement": "mutagenic call", "setting": "Test System: AMES SALMONELLA TYPHIMURIUM, Strain/Indicator: TA104, Metabolic Activation: RAT, LIVER, S-9, PHENOBARBITAL AND 5,6-BENZOFLAVONE, Method: PREINCUBATION", "value": "inactive; negative"}, {"measurement": "mutagenic call", "setting": "Test System: AMES SALMONELLA TYPHIMURIUM, Strain/Indicator: TA1535, Metabolic Activation: HAMSTER, LIVER, S-9, AROCLOR 1254, Method: STANDARD PLATE", "value": "inactive; negative"}, {"measurement": "mutagenic call", "setting": "Test System: AMES SALMONELLA TYPHIMURIUM, Strain/Indicator: TA1535, Metabolic Activation: NONE, Method: PREINCUBATION", "value": "inactive; negative"}, {"measurement": "mutagenic call", "setting": "Test System: AMES SALMONELLA TYPHIMURIUM, Strain/Indicator: TA1535, Metabolic Activation: NONE, Method: STANDARD PLATE", "value": "inactive; negative"}, {"measurement": "mutagenic call", "setting": "Test System: AMES SALMONELLA TYPHIMURIUM, Strain/Indicator: TA1535, Metabolic Activation: RAT, LIVER, S-9, AROCLOR 1254, Method: STANDARD PLATE", "value": "inactive; negative"}, {"measurement": "mutagenic call", "setting": "Test System: AMES SALMONELLA TYPHIMURIUM, Strain/Indicator: TA1535, Metabolic Activation: RAT, LIVER, S-9, PHENOBARBITAL AND 5,6-BENZOFLAVONE, Method: PREINCUBATION", "value": "inactive; negative"}, {"measurement": "mutagenic call", "setting": "Test System: AMES SALMONELLA TYPHIMURIUM, Strain/Indicator: TA1537, Metabolic Activation: HAMSTER, LIVER, S-9, AROCLOR 1254, Method: STANDARD PLATE", "value": "inactive; negative"}, {"measurement": "mutagenic call", "setting": "Test System: AMES SALMONELLA TYPHIMURIUM, Strain/Indicator: TA1537, Metabolic Activation: NONE, Method: PREINCUBATION", "value": "inactive; negative"}, {"measurement": "mutagenic call", "setting": "[8]", "value": "inactive; negative"}, {"measurement": "mutagenic call", "setting": "[9]", "value": "inactive; negative"}, {"measurement": "mutagenic call", "setting": "Test System: AMES SALMONELLA TYPHIMURIUM, Strain/Indicator: TA1537, Metabolic Activation: RAT, LIVER, S-9, PHENOBARBITAL AND 5,6-BENZOFLAVONE, Method: PREINCUBATION", "value": "inactive; negative"}, {"measurement": "mutagenic call", "setting": "Test System: AMES SALMONELLA TYPHIMURIUM, Strain/Indicator: TA1538, Metabolic Activation: HAMSTER, LIVER, S-9, AROCLOR 1254, Method: STANDARD PLATE", "value": "inactive; negative"}, {"measurement": "mutagenic call", "setting": "Test System: AMES SALMONELLA TYPHIMURIUM, Strain/Indicator: TA1538, Metabolic Activation: NONE, Method: PREINCUBATION", "value": "inactive; negative"}, {"measurement": "mutagenic call", "setting": "[10]", "value": "inactive; negative"}, {"measurement": "mutagenic call", "setting": "Test System: AMES SALMONELLA TYPHIMURIUM, Strain/Indicator: TA1538, Metabolic Activation: RAT, LIVER, S-9, AROCLOR 1254, Method: STANDARD PLATE", "value": "inactive; negative"}, {"measurement": "mutagenic call", "setting": "Test System: AMES SALMONELLA TYPHIMURIUM, Strain/Indicator: TA1538, Metabolic Activation: RAT, LIVER, S-9, PHENOBARBITAL AND 5,6-BENZOFLAVONE, Method: PREINCUBATION", "value": "inactive; negative"}, {"measurement": "mutagenic call", "setting": "Test System: AMES SALMONELLA TYPHIMURIUM, Strain/Indicator: TA2637, Metabolic Activation: NONE, Method: PREINCUBATION", "value": "inactive; negative"}, {"measurement": "mutagenic call", "setting": "Test System: AMES SALMONELLA TYPHIMURIUM, Strain/Indicator: TA2637, Metabolic Activation: RAT, LIVER, S-9, PHENOBARBITAL AND 5,6-BENZOFLAVONE, Method: PREINCUBATION", "value": "inactive; negative"}]}
{"smiles": "O=[N+]([O-])c1ccc2cccc3c2c1CC3", "values": [{"measurement": "mutagenic call", "setting": "[2]", "value": "active; positive"}]}
{"smiles": "Nc1ccc(Cc2cc(O)c(N)c(Cl)c2)cc1Cl", "values": [{"measurement": "mutagenic call", "setting": "[1]", "value": "inactive; negative"}, {"measurement": "mutagenic call", "setting": "[4]", "value": "inactive; negative"}]}
{"smiles": "c1ccc2c(c1)cc1ccc3cc4ccccc4c4ccc2c1c34", "values": [{"measurement": "mutagenic call", "setting": "[2]", "value": "inactive; negative"}, {"measurement": "mutagenic call", "setting": "[3]", "value": "active; positive"}, {"measurement": "mutagenic call", "setting": "[5]", "value": "inactive; negative"}, {"measurement": "mutagenic call", "setting": "[6]", "value": "active; positive"}, {"measurement": "mutagenic call", "setting": "[8]", "value": "inactive; negative"}, {"measurement": "mutagenic call", "setting": "[9]", "value": "inactive; negative"}, {"measurement": "mutagenic call", "setting": "[10]", "value": "inactive; negative"}, {"measurement": "mutagenic call", "setting": "Test System: AMES SALMONELLA TYPHIMURIUM, Strain/Indicator: TA1538, Metabolic Activation: RAT, LIVER, S-9, PHENOBARBITAL, Method: STANDARD PLATE", "value": "active; positive"}, {"measurement": "mutagenic call", "setting": "Test System: HUMAN H1A1V2 CELLS, Strain/Indicator: TK LOCUS, Metabolic Activation: NONE, Method: SUSPENSION/PLATE", "value": "active; positive"}]}
{"smiles": "Cc1ccc2nc3c(ccc4ccccc43)c(C)c2c1", "values": [{"measurement": "mutagenic call", "setting": "Test System: AMES SALMONELLA TYPHIMURIUM, Strain/Indicator: TA97A, Metabolic Activation: NONE, Method: PREINCUBATION", "value": "inactive; negative"}, {"measurement": "mutagenic call", "setting": "[1]", "value": "inactive; negative"}, {"measurement": "mutagenic call", "setting": "[3]", "value": "active; positive"}, {"measurement": "mutagenic call", "setting": "[4]", "value": "inactive; negative"}, {"measurement": "mutagenic call", "setting": "[6]", "value": "active; positive"}, {"measurement": "mutagenic call", "setting": "[7]", "value": "active; positive"}, {"measurement": "mutagenic call", "setting": "Test System: E. COLI, Strain/Indicator: WP2 UVRA, Metabolic Activation: HAMSTER, LIVER, S-9, AROCLOR 1254, Method: STANDARD PLATE", "value": "inactive; negative"}, {"measurement": "mutagenic call", "setting": "Test System: E. COLI, Strain/Indicator: WP2 UVRA, Metabolic Activation: HAMSTER, LIVER, S-9, Method: STANDARD PLATE", "value": "inactive; negative"}, {"measurement": "mutagenic call", "setting": "Test System: E. COLI, Strain/Indicator: WP2 UVRA, Metabolic Activation: MOUSE, LIVER, S-9, AROCLOR 1254, Method: STANDARD PLATE", "value": "inactive; negative"}, {"measurement": "mutagenic call", "setting": "Test System: E. COLI, Strain/Indicator: WP2 UVRA, Metabolic Activation: MOUSE, LIVER, S-9, Method: STANDARD PLATE", "value": "inactive; negative"}, {"measurement": "mutagenic call", "setting": "Test System: E. COLI, Strain/Indicator: WP2 UVRA, Metabolic Activation: NONE, Method: STANDARD PLATE", "value": "inactive; negative"}, {"measurement": "mutagenic call", "setting": "Test System: E. COLI, Strain/Indicator: WP2 UVRA, Metabolic Activation: RAT, LIVER, S-9, AROCLOR 1254, Method: STANDARD PLATE", "value": "inactive; negative"}, {"measurement": "mutagenic call", "setting": "Test System: E. COLI, Strain/Indicator: WP2 UVRA, Metabolic Activation: RAT, LIVER, S-9, Method: STANDARD PLATE", "value": "inactive; negative"}]}
